Assay results taken from patent publication US20050222013A1, “Methods for the use of inhibitors of histone deacetylase as synergistic agents in cancer therapy” (Georgetown University, priority 2003, published 2005).

How the values were obtained:
Type in all cases: cell-based, human
[1] = tested on: SQ-20B cells; test: IC50 determination by clonogenic cell kill (24 hour drug treatment, colonies scored after 2 to 3 weeks); conditions: 24 hour treatment
Description: IC50 is defined as the concentration of the HDAC inhibitor that kills 50% of cells following treatment with the drug. To determine the IC50, a series of dilutions of drug is used over a broad range, for example 0-1.6 μg/ml. Approximately 100-400 cells are seeded into T-25 flasks in triplicate and treated with various concentrations of the drug. After a 24 hour treatment, the cells are washed with standard PBS (phosphate buffered saline) solution. Cells are then grown in fresh media for 2 to 3 weeks. Colonies are stained with crystal violet and scored. Concentrations of drugs showing 50% cell death represent the IC50 concentration.

[2] = tested on: SQ-20B cells; test: Clonogenic survival after ionizing radiation, fit to the single hit multitarget and linear quadratic models; set-up: α (linear quadratic model) / β (linear quadratic model) / Do (multitarget model radiosensitivity): unit not given here; conditions: for Do (multitarget model radiosensitivity) / α (linear quadratic model) / β (linear quadratic model): SQ-20B cells treated with drug at IC50, then gamma radiation
Description: Logarithmically growing SQ-20B cells were treated with TSA (about 60 ng/ml) for about 24 h and the medium was replaced with fresh medium. Cells were exposed to a graded dose of gamma radiation. A semi-logarithmic plot of the data for these cells is shown. Clonogenic survival numbers were determined and fit to the single hit multitarget and the linear quadratic models for analysis, measured by clonogenic survival analysis. Points and bars represent mean+/−SEM from triplicate flasks in each experiment.
The effectiveness of a particular treatment can be determined by measuring the radiation survival. Post treatment survival can be studied both in vitro and in vivo. For example, for in vitro determinations, exponentially growing cells can be exposed to known doses of radiation and the survival of the cells monitored. Irradiated cells are plated and cultured for about 14-about 21 days, and the colonies are stained. The surviving fraction is […]. Graphing the surviving fraction on a log scale versus the absorbed dose on a linear scale generates a survival curve. Survival curves generally show an exponential decrease in the fraction of surviving cells at higher radiation doses after an initial shoulder region in which the dose is sublethal. A similar protocol can be used for chemical agents.
Two mathematical models are commonly employed to analyze radiation survival data. A first model is the multi-target model. In this analysis, the reciprocal of the slope of the survival curve is defined as D0, the radiosensitivity of the cell population or tissue under investigation. D0 is the dose required to reduce the surviving fraction to about 37% in the exponential portion of the survival curve. The extrapolation of the linear portion of the curve to the y-intercept is denoted n. The width of the shoulder region is represented by drawing a line from the 100% survival point to the extrapolation line, this width is denoted Dq. Dq is the quasi-threshold dose, or the point at which the reduction in surviving fraction as a function of radiation dosage becomes exponential. The Dq value can also provide an estimate of an additional total dose required for each division of a single dose therapy into fractional doses. The additional dose is required to overcome the effect of sublethal damage repair that occurs when two sublethal doses are separated in time.
The linear quadratic model (surviving fraction=[…]) is used to fit radiation survival data to a continuously bending curve, where D is dose and α and β are constants. Alpha is the linear component, a measure of the initial slope that represents single-hit killing kinetics and dominates the radiation response at low doses. Beta is the quadratic component of cell killing, that represents multiple-hit killing and causes the curve to bend at higher doses. The alpha:beta ratio is the dose at which the linear and quadratic components of cell killing are equal. The more linear the response to killing of cells at low radiation dose, the higher is the value of alpha, and the greater is the radiosensitivity of the cells.
A semi-logarithmic plot of the mean+/−SEM from triplicate flasks in each experiment for these cells is shown. Logarithmically growing SQ-20B cells were treated with TSA (about 60 ng/ml) for about 24 h and the medium was replaced with fresh medium. Cells were exposed to a graded dose of gamma radiation. Clonogenic survivals were determined and fit to the single hit multitarget and the linear quadratic models for analysis.

[3] = tested on: SQ-20B cells; test: Cell cycle distribution by flow cytometry (G1 phase); conditions: for Duration of G1 arresting effect: about 24 hour exposure, TSA about 60 ng/ml, mimosine about 0.4 mM
Description: FIGS. 2A and 2B show cell cycle distributions of SQ20B cells after treatment with either TSA (FIG. 2A) or mock treatment (FIG. 2B) for 24 h. Cells were washed with fresh medium and exposed to about 10 Gy ionizing radiation. Cell nuclei were prepared for flow cytometric analysis using the procedure of Vindelov et al. (46). The samples were analyzed on a Becton-Dickinson FACStarplus instrument and the percentage of nuclei with G1, S, and G2/M DNA content was determined. […] The radiation sensitivity of cells is a function of the cell cycle. The lethal effect of radiation exposure is often observed only after subsequent cell division. Accordingly, the G1 phase is the more radiation sensitive phase. The compounds employed in the invention are observed to maintain cells in the G1 phase following radiation exposure. Comparing FIG. 2A to FIG. 2B, it can be seen that exposure of SQ-20B cells to TSA for about 24 hours prior to radiation results in an accumulation of more than about 70% of cells in the G1 phase and a maintenance of about 50% of cells for about 12 hours. After treatment with either TSA (panel A) or mock treatment (panel B) for about 24 h, cells were washed with fresh medium and exposed to about 10 Gy ionizing radiation. Cell nuclei were prepared for flow cytometric analysis. The samples were analyzed on a Becton-Dickinson FACStarplus® instrument and the percentage of nuclei with G1, S, and G2/M DNA content was determined. By comparison, irradiated mock-treated cells are not arrested.

[4] = tested on: SQ-20B cells; test: Apoptotic index
Description: SQ-20B cells were exposed to about 10 Gy of irradiation. Time zero refers to cells that were subjected to sham irradiation. At the indicated times thereafter, attached and floating cells were collected and the number of apoptotic cells was determined as a percentage of the total number of cells (apoptotic index). Data shown represent mean values±SD from three independent experiments.
HDAC inhibitors are known to promote cancer cell death through apoptosis in vitro and in vivo. This has been a basis for the use of HDAC inhibitors at high concentrations as a single agent in chemical therapy. However, we have determined that the amount effective to synergize radiation-induced cell death is substantially less than the amount required to promote apoptosis. […] Concentrations that produce these effects can be determined for any HDAC inhibitory compound by one of skill in the art by observation of markers of apoptosis such as, for example, the apoptotic index and caspase activities.
Treatment with TSA (about 60 ng/ml) or mock treatment was followed by radiation (about 10 Gy). At about 24, about 48, and about 72 hours, attached and floating cells were collected and the number of apoptotic cells was determined as a percentage of the total number of cells (apoptotic index).

Compound	IC50 (concentration that kills 50% of cells) [1]	Do (multitarget model radiosensitivity) [2]	α (linear quadratic model) [2]	β (linear quadratic model) [2]	Sensitization to ionizing radiation ([2]; head and neck tumor cells, at about the IC50 concentration)	Duration of G1 arresting effect [3]	Cells accumulated in the G1 phase ([3]; exposure for about 24 hours prior to radiation (about 10 Gy))	Cells maintained in the G1 phase ([3]; maintained for about 12 hours after about 10 Gy)	Apoptotic index, treated versus mock treated ([4]; about 60 ng/ml followed by about 10 Gy, about 24, 48, 72 hours)	Promotion of apoptosis ([4]; at about 3 to about 7 times the IC50)	Promotion of apoptosis ([4]; at concentrations of about 200-about 400 ng/ml)	Promotion of apoptosis ([4]; at the IC50 concentration of about 60 ng/ml)
C/C=C1\NC(=O)[C@H]2CSSCC/C=C/[C@H](CC(=O)N[C@H](C(C)C)C(=O)N2)OC(=O)[C@H](C(C)C)NC1=O [FR, depsipsptide (FR 901228)]	0.005 µg/mL	1.65	0.104	0.033	–	–	–	–	–	–	–	–
CN(C)c1ccc(C(=O)NCCCCCCC(=O)NO)cc1 [M344]	0.32 µg/mL	1.65	0.077	0.033	–	–	–	–	–	–	–	–
CN(C)c1ccc(C(=O)NCCCCCC(=O)NO)cc1 [MD85]	0.1 µg/mL	2.49	0.024	0.022	–	–	–	–	–	–	–	–
O=C(CCCCCCC(=O)Nc1ccccc1)NO [SAHA, suberonylanilide hydroxamic acid]	–	1.88	0.011	0.031	–	–	–	–	–	–	–	–
CC(/C=C/C(=O)NO)=C\[C@@H](C)C(=O)c1ccc(N(C)C)cc1 [TSA, trichostatin A]	about 60 ng/ml	1.64	0.126	0.030	significantly sensitized head and neck tumor cells to ionizing radiation	about 12 hours	more than 70%	about 50%	the number of treated and untreated apoptotic cells were similar	does promote apoptosis	did promote significant apoptosis	did not promote significant apoptosis
NC(Cn1ccc(=O)c(O)c1)C(=O)O (stereo not shown) [mimosine]	–	–	–	–	–	about 4 hours	–	–	–	–	–	–
